Data as given in ChEMBL document CHEMBL2057088 (Bioorg Med Chem, 2012).

Columns and labels:
Rattus norvegicus [1] = organism: Rattus norvegicus; experiment: animal or person; conditions: Wistar, Plasma, po, 24 h, read-out: INH
Rattus norvegicus [2] = experiment: Ex-vivo inhibition of DPP4 in po dosed Wistar rat plasma up to 24 hrs by fluorometry; type: functional, organism-based

O=C([C@@H]1C[C@H](N2CCN(c3cc(C(F)(F)F)nc4ccccc34)CC2)CN1)N1CCSC1
inhibition in vivo at 3 µmol/kg (Rattus norvegicus [1]): > 40%
inhibition (Rattus norvegicus [2]): Dose-dependent effect
